The numbers were not newly measured in US4743707A, “Process for purifying allyl alcohol” (priority 1986, dated 1988), which cites them from elsewhere.

For the data set the following is noted: 20° C.; Ullmanns Encyklopadie.

SMILES strings stand for the structures.

Take `O=P([O-])([O-])OP(=O)([O-])OP(=O)([O-])[O-].[K+].[K+].[K+].[K+].[K+]` [Potassium tripolyphosphate, potassium tripolyphosphate]: the water solubility result was “about 67%”.
